Among the test systems are TK-10 renal; CCRF-CEM leukemia; NCI-H23 lung; UACC-62 melanoma; EKVX NSCLC; HOP-92 NSCLC; HCC-2998 colon; OVCAR-8 ovarian; NCI-H226 lung; ACHN renal.
Holding throughout (assay): NCI-60 cell line screen, 48 h

Several values for one entry are separate records, joined by “and”; a condition that tells them apart may be missing. Equal entries are not always repeated.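 The compound was tested at five concentrations on cells cultured in 96-well plates, with a 48-hour exposure period. GI50 is the concentration that inhibits growth by half. The concentration for full growth arrest is given as TGI.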 Where only a bound is given, the exact number is not on record here.

For `CC1(C)CC(=O)C(CC2C(=O)c3ccccc3C2=O)C(=O)C1`, the TGI in the assay on TK-10 renal, in the assay with CCRF-CEM leukemia, in the assay with NCI-H23 lung, in the assay on UACC-62 melanoma, in the assay on EKVX NSCLC and with HOP-92 NSCLC was above 100 µM throughout. The TGI in the assay on HCC-2998 colon, in the assay with OVCAR-8 ovarian, with NCI-H226 lung and in the assay with ACHN renal was above 100 µM each time.
For the compound `C=C1C(=O)C23C(O)C1CC[C@H]2C12CCCC(C)(COC(C)=O)[C@H]1[C@H](O)[C@]3(O)OC2` (stereo not given in full), the TGI came out at 3.62 µM in the assay with TK-10 renal; 1.16 µM in the assay with CCRF-CEM leukemia; 3.53 µM in the assay on NCI-H23 lung; 3.16 µM in the assay on UACC-62 melanoma; 9.67 µM in the assay on EKVX NSCLC; 3.02 µM in the assay on HOP-92 NSCLC. The TGI in the assay with HCC-2998 colon was 3.32 µM; in the assay with OVCAR-8 ovarian, 3.52 µM; with NCI-H226 lung, 5.7 µM; with ACHN renal, 3.32 µM.
With `Cn1c(=O)nc2n(-c3ccc(Cl)c(C(F)(F)F)c3)c3ccccc3nc-2c1=O`, the TGI was above 100 µM in the assay with TK-10 renal; above 100 µM with CCRF-CEM leukemia; above 83.2 µM in the assay on NCI-H23 lung; 35.4 µM in the assay with UACC-62 melanoma; above 83.9 µM in the assay with EKVX NSCLC; above 100 µM in the assay on HOP-92 NSCLC. Also, the TGI was 80.8 µM in the assay with HCC-2998 colon, 83.1 µM in the assay with OVCAR-8 ovarian, above 100 µM in the assay on NCI-H226 lung and above 100 µM in the assay with ACHN renal.
Take `CCCCCCCCCCCCCCCCCCOCC(COCCOCC[N+]1(CCCCCC(=O)[O-])CCCC1)Oc1ncccn1` (stereo not given): the TGI in the assay with TK-10 renal was found to be 20.3 µM; with CCRF-CEM leukemia it was 13.9 µM; with NCI-H23 lung, 18.1 µM; in the assay on UACC-62 melanoma it was 14.2 µM; with EKVX NSCLC, 31.3 µM; in the assay with HOP-92 NSCLC, 5.93 µM. For the same compound, the TGI with HCC-2998 colon stood at 17.4 µM; in the assay with OVCAR-8 ovarian, 15.9 µM; with NCI-H226 lung, 26.7 µM; with ACHN renal, 23.7 µM.
In the case of `CCCCCCCCCCCC1CC(=O)NCCCN(C)CCCCN(C)CCCN1C` (stereo not given), the TGI came out at 3.12 µM with TK-10 renal; 2.85 µM in the assay with CCRF-CEM leukemia; 3.12 µM in the assay with NCI-H23 lung; 3.09 µM in the assay with UACC-62 melanoma; 3.2 µM with EKVX NSCLC; 2.68 µM with HOP-92 NSCLC. For the same compound, the TGI in the assay on HCC-2998 colon was 3.21 µM; with OVCAR-8 ovarian, 3.33 µM; in the assay with NCI-H226 lung, 3.43 µM; in the assay with ACHN renal it was 3.08 µM.
As to `COc1ccc(C(=O)c2nc3ccccc3n2CC(=O)c2ccc(Cl)cc2)cc1`, the GI50 is 4.02 µM in the assay on TK-10 renal; 2.24 µM with CCRF-CEM leukemia; 4.61 µM with NCI-H23 lung; 4.93 µM in the assay with UACC-62 melanoma; 11.6 µM with EKVX NSCLC; above 100 µM with HOP-92 NSCLC. Moreover, the GI50 in the assay on HCC-2998 colon is 3.94 µM; with OVCAR-8 ovarian it was 6.3 µM; in the assay with NCI-H226 lung, above 28.4 µM; in the assay on ACHN renal, 6.4 µM. Also, the TGI in the assay on TK-10 renal is above 100 µM; with CCRF-CEM leukemia it was above 26.4 µM; with NCI-H23 lung, above 100 µM; in the assay on UACC-62 melanoma, above 100 µM; in the assay on EKVX NSCLC, above 100 µM; in the assay on HOP-92 NSCLC it was above 100 µM. The TGI in the assay on HCC-2998 colon, in the assay with OVCAR-8 ovarian, in the assay with NCI-H226 lung and in the assay on ACHN renal was above 100 µM in each case.
Take `CC(C)[O-].CC(C)[O-].CN(CCN(C)Cc1cc(F)cc(F)c1[O-])Cc1cc(F)cc(F)c1[O-].[Ti+4]`: the GI50 is 1.42 µM in the assay on TK-10 renal; 0.512 µM with CCRF-CEM leukemia; 0.706 µM with NCI-H23 lung; 1.26 µM in the assay with UACC-62 melanoma; 1.31 µM in the assay with EKVX NSCLC; 0.316 µM in the assay with HOP-92 NSCLC. Also, the GI50 with HCC-2998 colon is 2.22 µM; with OVCAR-8 ovarian it was 1.09 µM; in the assay on NCI-H226 lung, 2.14 µM; with ACHN renal, 1 µM. The TGI in the assay with TK-10 renal was 7.26 µM; with CCRF-CEM leukemia, above 35.1 µM; in the assay with NCI-H23 lung, 2.72 µM; in the assay on UACC-62 melanoma it was 3.09 µM; in the assay on EKVX NSCLC, 10 µM; in the assay with HOP-92 NSCLC, 1.18 µM. The TGI with HCC-2998 colon is 7.52 µM; in the assay on OVCAR-8 ovarian, 6.55 µM; with NCI-H226 lung, 10.5 µM; in the assay with ACHN renal, 8.34 µM.
For `COc1ccc(-c2c(C3=NCCCN3)nnn2-c2ccc([N+](=O)[O-])cc2)cc1`, the TGI with TK-10 renal, in the assay on CCRF-CEM leukemia, in the assay with NCI-H23 lung, in the assay with UACC-62 melanoma, with EKVX NSCLC and with HOP-92 NSCLC was above 100 µM throughout. The TGI in the assay with HCC-2998 colon, in the assay with OVCAR-8 ovarian, in the assay with NCI-H226 lung and in the assay with ACHN renal was above 100 µM each time.
As to `O=C(Cl)C1=C(c2ccccc2)C1c1ccccc1` (stereo not given), the TGI in the assay with TK-10 renal, in the assay with CCRF-CEM leukemia, with NCI-H23 lung, with UACC-62 melanoma, in the assay on EKVX NSCLC and in the assay on HOP-92 NSCLC was above 100 µM throughout. In addition, the TGI in the assay on HCC-2998 colon, in the assay on OVCAR-8 ovarian, in the assay on NCI-H226 lung and with ACHN renal was above 100 µM each time.
Regarding `CCOc1ccc(Nc2c3ccccc3nc3ccccc23)cc1`, the GI50 in the assay on TK-10 renal was 0.797 µM and 0.654 µM; in the assay on CCRF-CEM leukemia, 0.585 µM and 0.739 µM; with NCI-H23 lung, 0.495 µM and 0.422 µM; in the assay on UACC-62 melanoma, 0.506 µM and 0.216 µM; with EKVX NSCLC, 0.863 µM and 0.613 µM; in the assay on HOP-92 NSCLC, 0.299 µM and 1.06 µM. For the same compound, the GI50 in the assay on HCC-2998 colon was 0.816 µM; with OVCAR-8 ovarian it was 0.54 µM and 0.592 µM; in the assay with NCI-H226 lung it was 1.33 µM and 1.29 µM; with ACHN renal it was 0.953 µM and 0.636 µM. Further, the TGI in the assay with TK-10 renal was 4.27 µM and 12.3 µM; in the assay on CCRF-CEM leukemia, > 31.7 µM and 3.26 µM; in the assay with NCI-H23 lung, 4.51 µM and 3.3 µM; in the assay on UACC-62 melanoma, 4.25 µM and 1.3 µM; with EKVX NSCLC, 7.56 µM and 6.1 µM; in the assay with HOP-92 NSCLC it was 3.16 µM and 9.42 µM. Moreover, the TGI in the assay with HCC-2998 colon was 2.78 µM and 0.65 µM; with OVCAR-8 ovarian it was 2.45 µM and 15 µM; in the assay with NCI-H226 lung, 3.83 µM and 4.06 µM; with ACHN renal, 3.83 µM and 2.15 µM.

The values above are taken from PubChem BioAssay (NCI).
